In brackets after ≈: the same amount, converted by molar mass. Read-outs that look alike come from different tables or passages of the source.
Experiments:
Test in all cases: Antibacterial activity MIC, two-fold agar dilution
Assay type in all cases: cell-based
[1] = test system: Acinetobacter calcoaceticus ATCC 15473; conditions: read-out: Antibacterial Activity MIC
Procedure: (§1) These MIC values were taken by employing a two-fold dilution method: that is, two-fold serial dilutions of each of the test compounds were made and dispersed in a Muller-Hinton agar medium; 2 μl of the standard test strain which had the 10^7 CFU(Colony Forming Unit) per ml was inoculated on the medium; and these were incubated at 37° C. for 20 hours. The results of the MIC tests are shown Table 1.

[2] = test system: Bacillus cereus ATCC 11778; conditions: read-out: Antibacterial Activity MIC
Procedure: as §1

[3] = test system: Bacillus megaterium ATCC 9885; conditions: Priestia megaterium, read-out: Antibacterial Activity MIC
Procedure: as §1

[4] = test system: Citrobacter freundii ATCC 8090; conditions: read-out: Antibacterial Activity MIC
Procedure: as §1

[5] = test system: Enterobacter aerogenes ATCC 29751; conditions: Klebsiella aerogenes, read-out: Antibacterial Activity MIC
Procedure: as §1

[6] = test system: Enterobacter cloacae ATCC 27508; conditions: read-out: Antibacterial Activity MIC
Procedure: as §1

[7] = test system: Escherichia coli ATCC 10536; conditions: ATCC10536, Muller-Hinton agar, 37° C., 20 hours
Procedure: as §1

[8] = test system: Escherichia coli ATCC 25922; conditions: ATCC25922, Muller-Hinton agar, 37° C., 20 hours
Procedure: as §1

[9] = test system: Klebsiella pneumoniae ATCC 10031; conditions: read-out: Antibacterial Activity MIC
Procedure: as §1

[10] = test system: Micrococcus luteus ATCC 9341; conditions: read-out: Antibacterial Activity MIC
Procedure: as §1

[11] = test system: Morganella morganii ATCC 8076h; conditions: ATCC8076H, Muller-Hinton agar, 37° C., 20 hours
Procedure: as §1

[12] = test system: Proteus mirabilis ATCC 25933; conditions: read-out: Antibacterial Activity MIC
Procedure: as §1

[13] = test system: Proteus vulgaris ATCC 6059; conditions: read-out: Antibacterial Activity MIC
Procedure: as §1

[14] = test system: Providencia rettgeri ATCC 9250; conditions: ATCC9250, Muller-Hinton agar, 37° C., 20 hours
Procedure: as §1

[15] = test system: Pseudomonas aeruginosa ATCC 10145; conditions: read-out: Antibacterial Activity MIC
Procedure: as §1

[16] = test system: Pseudomonas aeruginosa ATCC 25619; conditions: read-out: Antibacterial Activity MIC
Procedure: as §1

[17] = test system: Pseudomonas aeruginosa ATCC 27853; conditions: read-out: Antibacterial Activity MIC
Procedure: as §1

[18] = test system: Salmonella typhimurium ATCC 14028; conditions: Salmonella enterica, read-out: Antibacterial Activity MIC
Procedure: as §1

[19] = test system: Serratia marcescens ATCC 27117; conditions: read-out: Antibacterial Activity MIC
Procedure: as §1

[20] = test system: Shigella flexneri ATCC 11836; conditions: ATCC11836, Muller-Hinton agar, 37° C., 20 hours
Procedure: as §1

[21] = test system: Shigella sonnei ATCC 11060; conditions: ATCC11060, Muller-Hinton agar, 37° C., 20 hours
Procedure: as §1

[22] = test system: Staphylococcus aureus ATCC 10537; conditions: read-out: Antibacterial Activity MIC
Procedure: as §1

[23] = test system: Staphylococcus aureus ATCC 6538p; conditions: ATCC6538P, read-out: Antibacterial Activity MIC
Procedure: as §1

[24] = test system: Staphylococcus epidermidis ATCC 12228; conditions: read-out: Antibacterial Activity MIC
Procedure: as §1

[25] = test system: Streptococcus faecalis ATCC 29212; conditions: Enterococcus faecalis, read-out: Antibacterial Activity MIC
Procedure: as §1

Work on CO/N=C(\C(=O)N[C@@H]1C(=O)N2C(C(=O)O)=C(COC(C)=O)CS[C@H]12)c1csc(N)n1 [Cefotaxime, reference compound] yielded an MIC ([1]; ATCC15473, Acinetobacter calcoaceticus ATCC 15473, Muller-Hinton agar, 37° C., 20 hours) of 8 µg/mL (≈ 17.6 µM), an MIC ([2]; ATCC11778, Bacillus cereus ATCC 11778, Muller-Hinton agar, 37° C., 20 hours) of 64 µg/mL (≈ 141 µM) and an MIC ([3]; ATCC9885, Bacillus megaterium ATCC 9885, Muller-Hinton agar, 37° C., 20 hours) of 0.063 µg/mL (≈ 0.138 µM). The MIC ([4]; ATCC8090, Citrobacter freundii ATCC 8090, Muller-Hinton agar, 37° C., 20 hours) was 0.063 µg/mL (≈ 0.138 µM), the MIC ([5]; ATCC29751, Enterobacter aerogenes ATCC 29751, Muller-Hinton agar, 37° C., 20 hours) was 2 µg/mL (≈ 4.39 µM) and the MIC ([6]; ATCC27508, Enterobacter cloacae ATCC 27508, Muller-Hinton agar, 37° C., 20 hours) was ≤ 0.008 µg/mL. For the same compound, the MIC [7] was 0.031 µg/mL (≈ 0.0681 µM), the MIC [8] was 0.031 µg/mL (≈ 0.0681 µM) and the MIC ([9]; ATCC10031, Klebsiella pneumoniae ATCC 10031, Muller-Hinton agar, 37° C., 20 hours) was ≤ 0.008 µg/mL. The MIC ([10]; ATCC9341, Micrococcus luteus ATCC 9341, Muller-Hinton agar, 37° C., 20 hours) was 0.031 µg/mL (≈ 0.0681 µM), the MIC [11] was ≤ 0.008 µg/mL and the MIC ([12]; ATCC25933, Proteus mirabilis ATCC 25933, Muller-Hinton agar, 37° C., 20 hours) was 0.031 µg/mL (≈ 0.0681 µM). The MIC ([13]; ATCC6059, Proteus vulgaris ATCC 6059, Muller-Hinton agar, 37° C., 20 hours) was 0.031 µg/mL (≈ 0.0681 µM), the MIC [14] was ≤ 0.008 µg/mL and the MIC ([15]; ATCC10145, Pseudomonas aeruginosa ATCC 10145, Muller-Hinton agar, 37° C., 20 hours) was 16 µg/mL (≈ 35.1 µM). For the same compound, the MIC ([16]; ATCC25619, Pseudomonas aeruginosa ATCC 25619, Muller-Hinton agar, 37° C., 20 hours) was 1 µg/mL (≈ 2.2 µM), the MIC ([17]; ATCC27853, Pseudomonas aeruginosa ATCC 27853, Muller-Hinton agar, 37° C., 20 hours) was 8 µg/mL (≈ 17.6 µM) and the MIC ([18]; Salmonella typhimurium ATCC 14028, Muller-Hinton agar, 37° C., 20 hours) was 0.13 µg/mL (≈ 0.285 µM). For the same compound, the MIC ([19]; ATCC27117, Serratia marcescens ATCC 27117, Muller-Hinton agar, 37° C., 20 hours) was 0.13 µg/mL (≈ 0.285 µM), the MIC [20] was 0.016 µg/mL (≈ 0.0351 µM) and the MIC [21] was 0.063 µg/mL (≈ 0.138 µM). For the same compound, the MIC ([22]; ATCC10537, Staphylococcus aureus ATCC 10537, Muller-Hinton agar, 37° C., 20 hours) was 1 µg/mL (≈ 2.2 µM), the MIC ([23]; Staphylococcus aureus ATCC 6538p, Muller-Hinton agar, 37° C., 20 hours) was 4 µg/mL (≈ 8.78 µM) and the MIC ([24]; ATCC12228, Staphylococcus epidermidis ATCC 12228, Muller-Hinton agar, 37° C., 20 hours) was 1 µg/mL (≈ 2.2 µM). For the same compound, the MIC ([25]; ATCC29212, Streptococcus faecalis ATCC 29212, Muller-Hinton agar, 37° C., 20 hours) was > 128 µg/mL.

CC(C)(O/N=C(\C(=O)N[C@@H]1C(=O)N2C(C(=O)[O-])=C(C[n+]3ccccc3)CS[C@H]12)c1csc(N)n1)C(=O)O [Ceftazidime, reference compound] showed an MIC ([1]; Acinetobacter calcoaceticus, ATCC15473, 20 h) of 4 µg/mL (≈ 7.32 µM), an MIC ([2]; Bacillus cereus, ATCC11778, 20 h) of 128 µg/mL (≈ 234 µM) and an MIC ([3]; ATCC9885, 20 h) of 0.25 µg/mL (≈ 0.457 µM). For the same compound, the MIC ([4]; Citrobacter freundii, ATCC8090, 20 h) was 1 µg/mL (≈ 1.83 µM), the MIC ([5]; ATCC29751, 20 h) was 4 µg/mL (≈ 7.32 µM) and the MIC ([6]; Enterobacter cloacae, ATCC27508, 20 h) was 0.063 µg/mL (≈ 0.115 µM). It also gave an MIC [7] of 0.13 µg/mL (≈ 0.238 µM), an MIC [8] of 0.13 µg/mL (≈ 0.238 µM) and an MIC ([9]; Klebsiella pneumoniae, ATCC10031, 20 h) of 0.13 µg/mL (≈ 0.238 µM). The MIC ([10]; Micrococcus luteus, ATCC9341, 20 h) was 1 µg/mL (≈ 1.83 µM), the MIC [11] was 0.016 µg/mL (≈ 0.0293 µM) and the MIC ([12]; Proteus mirabilis, ATCC25933, 20 h) was 0.063 µg/mL (≈ 0.115 µM). For the same compound, the MIC ([13]; Proteus vulgaris, ATCC6059, 20 h) was 0.063 µg/mL (≈ 0.115 µM), the MIC [14] was ≤ 0.008 µg/mL and the MIC ([15]; Pseudomonas aeruginosa, ATCC10145, 20 h) was 2 µg/mL (≈ 3.66 µM). For the same compound, the MIC ([16]; Pseudomonas aeruginosa, ATCC25619, 20 h) was 1 µg/mL (≈ 1.83 µM), the MIC ([17]; Pseudomonas aeruginosa, ATCC27853, 20 h) was 1 µg/mL (≈ 1.83 µM) and the MIC ([18]; 20 h) was 0.25 µg/mL (≈ 0.457 µM). For the same compound, the MIC ([19]; Serratia marcescens, ATCC27117, 20 h) was 0.13 µg/mL (≈ 0.238 µM), the MIC [20] was 0.063 µg/mL (≈ 0.115 µM) and the MIC [21] was 0.063 µg/mL (≈ 0.115 µM). For the same compound, the MIC ([22]; Staphylococcus aureus, ATCC10537, 20 h) was 8 µg/mL (≈ 14.6 µM), the MIC ([23]; Staphylococcus aureus, 20 h) was 16 µg/mL (≈ 29.3 µM) and the MIC ([24]; Staphylococcus epidermidis, ATCC12228, 20 h) was 8 µg/mL (≈ 14.6 µM). The MIC ([25]; ATCC29212, 20 h) was > 128 µg/mL.

Source: US5292733A, “Cephalosporin compounds” (Lucky Limited, priority 1991, dated 1994)
